According to article PMC9848256 (Journal of Enzyme Inhibition and Medicinal Chemistry, 2023):

Assay: in vivo
Details: male, SD, rat, iv, 1 mg/kg
Method: The preliminary pharmacokinetic study was conducted in male SD rats. Two groups with three mice each were set by random. […] The liquid chromatography tandem mass spectrometry (LC-MS/MS) method was pre-built. The system consisted of LC-20AD High Performance Liquid Chromatography (Shimazu, Japan) with Venusil C18 Plus column (2.1*50 mm, 5.0 μm, Agela, USA) and API 4000 mass spectrometry (AB, USA). […] In the LC method, mobile phase A was distilled water and mobile phase B was acetonitrile. The rinse port wash solution was methanol. The flow rate was 0.700 ml/min and the initial back pressure was 8.9 Mpa. […] The subsequent calculation was under a non-compartmental model statistical moment method with WinNonlin 7.0 software (USA).
Two modes of administration were applied. One was the intragastric injection (i.g., or “PO” for “per os”) at a dosage (D) of 3.0 mg/kg, while the other was the intravenous injection (i.v., or “IV”) at a dosage of 1.0 mg/kg.

CCCCS(=O)(=O)Oc1ccc(/C=C/C(=O)Nc2cccc(Br)c2)cc1 [Spartinin C10, (E)-4–(3-((3-bromophenyl)amino)-3-oxoprop-1-en-1-yl)phenylbutane-1-sulphonate]
AUC(0-inf): 184 ± 74.4 ng·h/mL | AUC(0-t): 159 ± 65 ng·h/mL | Cmax: 284 ± 270 ng/mL | Tmax: 5 min | half-life: 32.3 ± 13.7 min
